Data published in US20110201582A1, “METHOD AND COMPOSITION FOR TREATMENT OF SKIN CONDITIONS” (priority 2004, published 2011).
Entries after “also recorded” stand apart in the source; their conditions may differ. Structures can show the parent of a compound that is named as a salt.

Tested on: eczema, seborrheic dermatitis and allergic skin reactions
Assay: Applicant's general experiments: compounds applied to the affected skin area alone or before a topical corticosteroid
Type: in vivo, adult patient
Details: for effectiveness in alleviating the symptoms: applied alone, with no steroid; for enhancement of effectiveness of the topical corticosteroid: applied to affected area prior to the topical corticosteroid, compared with topical corticosteroid alone; for effectiveness compared with hydrocortisone 2.5% alone: decongestant alone applied before hydrocortisone 0.5%
Experimental: The experiments were conducted in order to try to treat these conditions as well as to try to enhance the performance of hydrocortisone and other topical corticosteroids in the treatment of these conditions.
With respect to the use of compounds to try to enhance the effectiveness of topical corticosteroids, the experiments involved first applying to the affected area particular compounds and then shortly thereafter applying to the same affected area a topical corticosteroid. For example, compounds that were tried include eye drop solutions, nasal decongestant sprays and other kinds of compounds available over the counter or by prescription. Antihistamine and decongestant combinations were tried as a solution to be applied to the affected area prior to the application of the steroid. In addition, antihistamines alone (preceding the corticosteroid) and decongestants alone (preceding the corticosteroid) were tried. As stated above, antihistamines alone (without the corticosteroid) and decongestants alone (without the corticosteroid) were also tried.
An increase in effectiveness is defined as greater alleviation of the dermatological symptoms of the condition or speedier alleviation of the dermatological symptoms of the condition or both.
That is, the identical experiment was conducted for the same condition but without preceding (or following) the application of the corticosteroid cream with an application of any solution in according with the method of the present invention.

| Structure (SMILES) | effectiveness in alleviating the symptoms (HCL) | enhancement of effectiveness of the topical corticosteroid (HCL) | effectiveness compared with hydrocortisone 2.5% alone | enhancement of effectiveness of the topical corticosteroid |
| --- | --- | --- | --- | --- |
| c1ccc2c(CC3=NCCN3)cccc2c1 [naphazoline HCL] | works somewhat to alleviate dermatological symptoms, albeit not fantastically; also recorded: mildly effective alleviation | slightly greater than that of a topical corticosteroid alone; also recorded: only mild enhancement of effectiveness | performs better | – |
| CNC[C@H](O)c1cccc(O)c1 [phenylephrine HCL] | works somewhat to alleviate dermatological symptoms, albeit not fantastically; also recorded: mildly effective alleviation | – | performs better | only mild enhancement of effectiveness |
